This note sets out measurements from the METLIN SMRT retention time set (Domingo-Almenara et al. 2019).

Structures are written as SMILES.

This data set is described as follows: gradient 5% acetonitrile 3 min, to 50% in 2 min, to 85% in 15 min, held 3 min, 100 µL/min. To be noted: column: Zorbax Extend-C18 2.1 x 50 mm; eluents: water / acetonitrile, 0.1% formic acid. In short, it runs like this:
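Each retention time is based on an adduct peak selected computationally and verified by manual inspection. Measurements used HPLC–quadrupole time-of-flight mass spectrometry in positive and negative ionization mode on mixtures of ~100 pure standards. Chromatography ran on a Zorbax Extend-C18 column (2.1 × 50 mm, 1.8 μm) at 100 μL/min with water and acetonitrile, each containing 0.1% formic acid, and dead and dwell volumes of 40 μL and 900 μL.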
Consider `O=C(Cn1ccc2ccc(N3CCOCC3)nc21)NC1CCN(Cc2ccccc2)CC1`, for which the RP-LC retention time is 638 s.

The compound `Cc1cccc(C)c1NC(=O)Cn1ncc2c(c1=O)N(CC1CC1)C(=O)CS2` had an RP-LC retention time of 784 s. Take `CCOc1ccc(-n2c(=O)c3sccc3n(Cc3nc(-c4ccccc4OCC)no3)c2=O)cc1`: the RP-LC retention time turned out to be 1020 s. Take `CC(C(=O)NCc1cccs1)S(=O)(=O)c1ccc2c(c1)S(=O)(=O)N=CN2` (stereo not drawn): the RP-LC retention time worked out at 628 s. For the compound `CCCNC(=O)C1CCCN(c2nc3ncn(CC(=O)Nc4ccc(F)cc4F)c(=O)c3s2)C1` (stereo not drawn), the RP-LC retention time came to 684 s. `COc1ccccc1NS(=O)(=O)c1cc2c(s1)CCN(C(=O)C1CCC1)C2` came in with an RP-LC retention time of 890 s. Compound `O=C1NCCOCCCN(C(=O)Nc2ccccc2)[C@H]2CCC[C@@H]12` showed an RP-LC retention time of 741 s. As for `Cc1cc(=O)n(CC(=O)Nc2ccc(F)cc2)c(N)n1`, the RP-LC retention time is 592 s. The figure for `CCOCCCNC(=O)C1CCN(c2cc(Sc3cc(C)ccc3C)ncn2)CC1` is 775 s.

In turn, `Cn1cc(-c2cc3n(n2)CCCN3C(=O)CCC(=O)NCCCN2CCOCC2)c2ccccc21` showed an RP-LC retention time of 611 s.

`O=C(Nc1c(-c2ccccc2)nc2ccccn12)c1cc(Br)ccc1Cl` yielded an RP-LC retention time of 717 s.

Turning to `NC(=O)c1ccc2c(c1)CCCN2C(=O)c1ccc(Cl)cc1`, the RP-LC retention time worked out at 704 s. The figure for `CCC(C)NC(=O)c1n[nH]c2c1CC(C)CC2` (stereo not drawn) is 777 s; for `CCCNC(=O)CCc1nc2ccccc2n(CC(=O)Nc2cc(Cl)c(OC)cc2OC)c1=O` it is 790 s.

The compound `O=S(=O)(Cc1ccccc1F)N1CCC(c2noc(COCC3CC3)n2)CC1` displayed an RP-LC retention time of 962 s. The figure for `CCn1nccc1C(=O)N1CCCC1c1ccccc1F` (stereo not drawn) is 840 s.

As for `COc1cccc(CNC(=O)Cn2nc3c4cccc(C)c4ncn3c2=O)c1OC`, the RP-LC retention time stood at 630 s. `O=C(CN1CCOCC1)Nc1ccc(Br)cc1`: the RP-LC retention time came out at 556 s. The figure for `CCCn1c(=O)sc2cc(S(=O)(=O)N3CCC(C(=O)Nc4ccc(C)cc4)CC3)ccc21` is 1010 s; for `CCOc1ccc(N(C)C(=O)C2CCN(S(=O)(=O)c3ccc4c(c3)sc(=O)n4C)CC2)cc1` it is 885 s. The figure for `COCCNC(=O)Cn1nc(C)c2c(C)n(-c3ccccc3)nc2c1=O` is 649 s. Turning to `COc1ccc(OC)c(NC(=O)Cc2csc3nc(-c4cccc(Br)c4)cn23)c1`, the RP-LC retention time was found to be 1010 s. The figure for `CCn1c(=O)c(=O)n(CC(=O)NC2CCCCCCC2)c2cccnc21` is 806 s. The compound `Cn1c(=O)n([C@H]2CCN(S(=O)(=O)c3ccc(F)cc3)C2)c2ncccc21` gave an RP-LC retention time of 805 s. The figure for `O=C1CCN(C(=O)c2cccs2)CCCCCCN1` is 622 s; for `Cn1cnc2c(C(=O)NC3CCCCCC3)nn(-c3ccccc3)c2c1=O` it is 910 s; for `COc1ccc(-n2c(=O)c3sccc3n(Cc3nc(-c4ccccc4OC)no3)c2=O)cc1` it is 856 s. With `CCCNC(=O)C1CCN(S(=O)(=O)c2ccc3c(c2)sc(=O)n3CCC)CC1`, the RP-LC retention time worked out at 824 s. The figure for `CNC(=O)N1CCC(OC(C)=O)CC1` is 583 s; for `CN(CC(=O)N1CCN(c2ccccc2F)CC1)S(=O)(=O)c1ccc2c(c1)CCCC(=O)N2` it is 768 s.

Regarding `CSc1ccc(-c2noc(Cn3ncn4nc(-c5ccc(C)cc5C)cc4c3=O)n2)cc1`, the RP-LC retention time was determined as 1270 s.

In turn, `Cc1cc(C)c(S(=O)(=O)NCc2c(-c3ccccc3)nc3sc(C)nn23)c(C)c1` returned an RP-LC retention time of 1020 s. Take `O=C1NCCCn2cc(S(=O)(=O)N(Cc3ccccc3)c3ccccc3)cc21`: the RP-LC retention time was 808 s.
